{"source": "patent US7247734B2", "about": "(Vernalis (Cambridge) Limited, priority 2001, dated 2007)", "key": {"[1]": {"test_system": "HCT116 human colon tumour cells", "test": "96 h growth inhibition assay (SRB), HCT116", "type": "cell-based", "conditions": "HCT116, 96 h", "procedure": "(§1) The growth inhibition assay employed was based on that described previously (Kelland et al., 1993). HCT116 and HT29 human colon tumour cells (American Tissue Culture Collection) were seeded into 96-well tissue culture plates (approximately 1600–2000 cells per well) and allowed to attach for 36 hours. Eight wells were treated with a single concentration from a range of compound concentrations and incubated for 96 hours. Cells were fixed using ice cold 10% trichloroacetic acid (TCA). Plates were then washed five times with water, air dried, and stained with 0.4% sulphorhodamine B (SRB) in 1% acetic acid for 10 minutes. The SRB stain was solubilised in 10 mM Tris-HCl and the absorbance measured at 540 nm using a Titertek Multiscan MCC/340 MKII plate reader (Flow Laboratories, IEC, Basingstoke, N.H.). The absorbance values correspond to total protein content and are used as a measure of cell growth."}, "[2]": {"test_system": "HSP70 and RAF-1 expression in A2780 human ovarian cancer cells", "test": "Western blotting of HSP70 and RAF-1 in A2780 cells", "type": "cell-based", "conditions": "60 nM (5×IC50), various times", "procedure": "(§2) The cellular effects of HSP90 inhibitors can be measured using a number of molecular markers. As already mentioned, HSP90 inhibition leads to the depletion of several important cellular signalling proteins. […] Depletion is normally observed by 6 h, with maximum depletion occurring at 24 h. As well as RAF-1, depletion of several other HSP90 client proteins can be measured by immunoblotting e.g., CDK4, ERBB2. However, it is important to note that some of these proteins are cell line specific e.g., ERBB2 is expressed mainly in breast, thyroid, kidney and some ovarian tumour cell lines. Another very important marker of HSP90 inhibition is heat shock protein 70 (HSP70). A HSF-1 (heatshock factor 1) dependent increase in HSP70 levels has been reported by us and other groups (see, e.g., Whitesell et al., 1994; Clarke et al., 2000) and this effect can serve as a positive indicator of HSP90 inhibitor action. The immunoblotting method described is based on standard techniques but is described in detail for ease of reference.\nPrepare as required and store at −20° C. • (4) Bicinchoninic acid (BCA) protein assay reagents (PerBio Science UK, Ltd., Chester, UK). • (5) Casein blocking buffer (0.5% casein, 0.02% thimerosal, in PBS). […]\n(§3) Comments • (1) The protein bands are normally evaluated visually. […]"}, "[3]": {"test_system": "HT29 human colon tumour cells", "test": "96 h growth inhibition assay (SRB), HT29", "type": "cell-based", "conditions": "HT29, 96 h", "procedure": "as §1"}, "[4]": {"test_system": "HSP70 and client protein (CDK4) expression in HT29 cells", "test": "Western blotting of HSP70 and CDK4 in HT29 cells", "type": "cell-based, human", "conditions": "24 hours, various concentrations", "procedure": "as §2\nPrepare as required and store at −20° C. • (4) Bicinchoninic acid (BCA) protein assay reagents (PerBio Science UK, Ltd., Chester, UK). • (5) Casein blocking buffer (0.5% casein, 0.02% thimerosal, in PBS). Store at 4° C. for up to 2 weeks. • (6) Wash buffer (phosphate buffered saline, PBS) containing 0.05% Tween 20). • (7) Tris-glycine gradient polyacrylamide precast gels (4–20%) (1 mm thick) (Novex, InVitrogen, Groningen, NL). • (8) Nitro-cellulose membrane (0.2 μm pore size) (InVitrogen, Groningen, NL). • (9) Ponceau Red stain (2% w/v in 30% TCA/30% […], Sigma Aldrich Ltd., Pool, UK). • (10) Enhanced chemiluminescence (SuperSignal) reagents (PerBio Science UK, Ltd., Chester, UK). • (11) Photographic film (Hyperfilm ECL, Amersham Pharmacia Biotech, Little Chalfont, Bucks, UK). Method\nThe following protocol was used: • (1) Lyse cells (approx 4×10^6) in 100 μl lysis buffer for 30 minutes on ice. When adding the lysis buffer, shear cells by pipetting up and down using a Gilson P200 pipette. • (2) Spin lysates for 10 min at 13,000 rpm at 4° C., retrieve supernatant and store at −70° C. • (3) Determine protein concentration using BCA protein assay reagents. • (4) Load samples of cell lysates (50 μg protein/lane) onto gel and separate proteins by SDS-polyacrylamide gel electrophoresis (SDS-PAGE) using a 4–20% Tris-glycine gel. • (5) Transfer proteins to nitrocellulose membrane using optimum conditions for the equipment available. For example, 150 mA for 2 h using the Mighty Small transfer system (Hoeffer TE22 Mini Tank Transphor Unit, Amersham Pharmacia Biotech, Little Chalfont, Bucks, UK). […]\nas §3"}}, "data": [{"smiles": "C=CCNC1=C2C[C@@H](C)C[C@H](OC)[C@H](O)[C@@H](C)/C=C(\\C)[C@H](OC(N)=O)[C@@H](OC)/C=C\\C=C(/C)C(=O)NC(=CC1=O)C2=O", "note": "[Example 17AAG, 17-allylamino-17-demethoxygeldanamycin, reference compound]", "values": [{"measurement": "IC50", "setting": "[1]", "result": 0.1, "unit": "µM"}, {"measurement": "HSP70 expression (immunoblot)", "setting": "[2]", "result": "induced"}, {"measurement": "RAF-1 expression (immunoblot)", "setting": "[2]", "result": "depleted"}, {"measurement": "IC50", "setting": "[3]", "result": 0.01, "unit": "µM"}, {"measurement": "CDK4 client protein expression (immunoblot)", "setting": "[4]", "result": "depleted"}, {"measurement": "HSP70 expression (immunoblot)", "setting": "[4]", "result": "induced"}]}]}
